“Also recorded” adds a separate entry of the source.
Experiments:
LLC-PK1 cells = test: TUNEL apoptosis assay (apoptotic index) in cultured LLC-PK1 cells; type: cell-based, pig; settings: for Apoptotic activity (in words): substance alone; for AI: 2 h
Description: Cell Culture and Assay Protocol. LLC-PK1, a pig kidney epithelial cell line was plated at a density of 10^3 cells per well into eight-well Permanox plastic chamber slides (NUNC, Naperville, Ill.). The cells were cultured at 37° C. in 5% CO2 in humidified incubators and grown for 3 days to 70-80% confluency in DMEM-F12 that was supplemented with 10% fetal calf serum, 7.5% sodium bicarbonate, 15 mM HEPES, 200 mM L-Glutamate, 100 u penicillin and 0.1 ug/ml streptomycin (Life Technologies, Gaithersburg, Md.). The culture fluid was then removed and cells were exposed to plasma from control individuals, Alzheimer's disease patients or multi-infarct dementia patients diluted 1:5 in fresh DMEM-F12 media, supplemented as above, for 2 h at 37° C. The cells were then rinsed in PBS, and fixed in 4% formaldehyde in PBS for 10 min., permeabilized with 0.5% Triton X-100 (Sigma Chemical CO., St. Louis, Mo.) for 5 min. and washed in 4 changes of distilled water. A positive control was obtained by exposing cells to 0.6 mM H2O2 diluted in DMEM-F12 for 2 h.
Apoptosis Assay (TUNEL): Nuclear DNA fragmentation consistent with apoptosis was determined by the method of TdT-mediated dUTP-biotin nick-end labeling (TUNEL) (Y. Gavrieli et al., J. Cell. Biol. 119:493-501, 1992). The ApopDetek cell death assay kit (Enzo, Farmingdale, N.Y.) was used utilizing terminal deoxynucleotide transferase to incorporate Bio-16-dUTP onto the 3′-OH termini in the DNA of apoptotic cells, subsequent binding with streptavidin-horseradish peroxidase, and visualization after conversion of the substrate and chromagen (hydrogen peroxide and aminoethylcarbazole) into a localized brick red precipitate. A blue counter stain was also used. Slides were then observed for morphologically irregular and condensed nuclei which contain dark red precipitate to indicate TUNEL-positive cells using a Nikon (Nikon, Inc., Melville, N.Y.) Optiphot microscope. Five to six random field totaling approximately 1,000 to 1,500 cells were counted per slide. Apoptotic index (AI), defined as the percent of cells undergoing apoptosis, is calculated by dividing the number of positive nuclei by the total number of nuclei counted multiplied by 100. […]
Effect of Protein Synthesis on Apoptotic Activity. LLC-PK1 cells were exposed to Alzheimer's disease and control plasma in the absence and presence of cycloheximide (0.2-200 uM) (Sigma, St. Louis, Mo.). Apoptotic index was measured in these cells by TUNEL assay.
Effect of Calcium Depletion on Factor Activity. The TUNEL assay was performed in the usual manner except for substituting DMEM-F12 with calcium-free DMEM, supplemented with dialyzed 10% fetal calf serum (Life Technologies, Grand Island, N.Y.) and 0.6 mM EGTA to chelate calcium. Dialyzed Alzheimer's disease and control plasma were then added to the calcium-free media for 2 h at 37° C. and a TUNEL assay performed.
Contribution of Known Apoptotic Inducers. To test the possibility that the apoptotic factor in Alzheimer's disease plasma was β amyloid, TNF-α or myeloma light chain, the TUNEL assay was repeated as above after a 2 h incubation at 37° C. with […] β amyloid (Peninsula Laboratories, Inc., Belmont, Calif.), 5 pM-3 nM TNF-α (Quantikine, Minneapolis, Minn.) and 3-60 ug λ myeloma light chain, kindly supplied by Dr. Vecihi Batuman, Tulane University School of Medicine, New Orleans, La. To eliminate the possibility that a protease in Alzheimer's disease plasma is responsible for the apoptotic activity, the effect of a broad spectrum protease inhibitor cocktail (Boehringer Mannheim) was studied on apoptotic index using the TUNEL assay. LCC-PK1 cells were incubated with Alzheimer's disease plasma with and without the inhibitor cocktail and assayed as detailed above. This cocktail inhibits a large spectrum of serine, cysteine, and metalloproteases as well as calpains. It consists of aprotinin, leupeptin, EDTA, and pefabloc.

[1] = test system: human kidney proximal tubule cells; test: Apoptosis of human kidney proximal tubule cells in culture; type: cell-based
Description: Apoptosis Assay (TUNEL): Nuclear DNA fragmentation consistent with apoptosis was determined by the method of TdT-mediated dUTP-biotin nick-end labeling (TUNEL) (Y. Gavrieli et al., J. Cell. Biol. 119:493-501, 1992). The ApopDetek cell death assay kit (Enzo, Farmingdale, N.Y.) was used utilizing terminal deoxynucleotide transferase to incorporate Bio-16-dUTP onto the 3′-OH termini in the DNA of apoptotic cells, subsequent binding with streptavidin-horseradish peroxidase, and visualization after conversion of the substrate and chromagen (hydrogen peroxide and aminoethylcarbazole) into a localized brick red precipitate. A blue counter stain was also used. Slides were then observed for morphologically irregular and condensed nuclei which contain dark red precipitate to indicate TUNEL-positive cells using a Nikon (Nikon, Inc., Melville, N.Y.) Optiphot microscope. Five to six random field totaling approximately 1,000 to 1,500 cells were counted per slide. Apoptotic index (AI), defined as the percent of cells undergoing apoptosis, is calculated by dividing the number of positive nuclei by the total number of nuclei counted multiplied by 100.

**Q.** What does the source list for `CCCCC[C@H](O)C/C=C1/C(=O)C=C[C@@H]1C/C=C\CCCC(=O)O` [-Δ^12Prostaglandin J2]?
**A.** Apoptotic activity (in words) (LLC-PK1 cells): increases the rate of apoptosis; Effect on apoptosis (in words) ([1]; addition of Δ12Prostaglandin J2 to Indomethacin): increased apoptosis; Effect on apoptosis (in words) ([1]; combination of Indomethacin, Prostaglandin D2 Synthase and Δ12Prostaglandin J2): increased apoptosis; Effect on apoptosis (in words) ([1]; substance alone): induces apoptosis; also recorded: increased apoptosis to the same degree as prostaglandin D2 synthase; Effect on apoptosis (in words) ([1]; substance alone, listed as -Δ^12prostaglandin J2): induces apoptosis

**Q.** Which “Effect on apoptosis by Alzheimer's disease plasma (in words)” value (LLC-PK1 cells; 200 uM cycloheximide) does the source give for `C[C@@H]1C[C@@H]([C@H](O)CC2CC(=O)NC(=O)C2)C(=O)[C@@H](C)C1` [Cycloheximide, cycloheximide] here?
**A.** inhibition of apoptosis

**Q.** And the “AI (%)” value (LLC-PK1 cells; cycloheximide 200 uM, cells exposed to Alzheimer's plasma)?
**A.** 7.7 ± 1.6%

**Q.** What about the “AI (%)” value (LLC-PK1 cells; cycloheximide 200 uM, cells exposed to control plasma) of the same molecule?
**A.** 6.3 ± 1.5%

**Q.** What about the “AI (%)” value (LLC-PK1 cells; cycloheximide 0.2-20 uM, cells exposed to Alzheimer's plasma) of the same molecule?
**A.** 28.7 ± 4.0%

**Q.** And the “AI (%)” value (LLC-PK1 cells; cycloheximide 0.2-20 uM, cells exposed to control plasma)?
**A.** 5.0 ± 0.0%

**Q.** And the “Effect on apoptosis by Alzheimer's disease plasma (in words)” value (LLC-PK1 cells; lower concentrations of cycloheximide)?
**A.** no inhibition of apoptosis

**Q.** What does the source list for `COc1ccc2c(c1)c(CC(=O)O)c(C)n2C(=O)c1ccc(Cl)cc1` [Indomethacin]?
**A.** Effect on apoptosis (in words) ([1]; simultaneous addition of Indomethacin and Prostaglandin D2 Synthase): did not increase apoptosis above baseline; Effect on apoptosis (in words) ([1]; substance alone): inhibited apoptosis to baseline

**Q.** `CCN1C(=O)C=CC1=O` [N-Ethyl Maleimide] was tested. Which “Effect on apoptosis (in words)” value ([1]; deactivation/inhibition of Prostaglandin D2 Synthase by N-Ethyl Maleimide) did it give?
**A.** inhibited apoptosis

**Q.** How did the “Effect on apoptosis (in words)” value ([1]; substance alone) turn out when `CCCCC[C@H](O)/C=C/[C@H]1C(=O)C[C@H](O)[C@@H]1C/C=C\CCCC(=O)O` [Prostaglandin D, prostaglandin D2] was run?
**A.** did not increase apoptosis

**Q.** With `CCCCC[C@H](O)/C=C/[C@@H]1[C@@H](C/C=C\CCCC(=O)O)[C@@H]2C[C@H]1OO2` [Prostaglandin H, prostaglandin H2] as the molecule, how does the “Effect on apoptosis (in words)” value ([1]; substance alone) read?
**A.** did not increase apoptosis

**Q.** With Prostaglandins E [Prostaglandin E] as the molecule, how does the “Effect on apoptosis (in words)” value ([1]; substance alone) read?
**A.** did not increase apoptosis

**Q.** With TNF-α as the molecule, how does the AI (LLC-PK1 cells; doses as high as 50 pM) read?
**A.** 6%

**Q.** How did the AI (LLC-PK1 cells; 50 uM in media) turn out when β-amyloid was run?
**A.** 6.1±3.1%

**Q.** And the “Apoptotic activity (in words)” value (LLC-PK1 cells)?
**A.** No detectable apoptotic activity

B1: α1 microglobulin: protein co-found in the 32 Kd band from urine of a renal salt wasting patient (protein, UniProt P02760 20-203, looked up)
Alpha-1-microglobulin: GPVPTPPDNIQVQENFNISRIYGKWYNLAIGSTCPWLKKIMDRMTVSTLVLGEGATEAEISMTSTRWRKGVCEETSGAYEKTDTDGKFLYHKSKWNITMESYVVHTNYDEYAIFLTKKFSRHHGPTITAKLYGRAPQLRETLLQDFRVVAQGVGIPEDSIFTMADRGECVPGEQEPEPILIPRV
modifications: Alpha-1-microglobulin
notes: protein co-found in the 32 Kd band from urine of a renal salt wasting patient
**Q.** For B1, which “Apoptotic activity (in words)” value (LLC-PK1 cells) is on record?
**A.** no apoptotic activity

B2: Prostaglandin D2 Synthase: enzyme that converts prostaglandin H2 to prostaglandin D2; identified apoptotic factor (protein, UniProt P41222 23-190, looked up)
Prostaglandin-H2 D-isomerase: APEAQVSVQPNFQQDKFLGRWFSAGLASNSSWLREKKAALSMCKSVVAPATDGGLNLTSTFLRKNQCETRTMLLQPAGSLGSYSYRSPHWGSTYSVSVVETDYDQYALLYSQGSKGPGEDFRMATLYSRTQTPRAELKEKFTAFCKAQGFTEDTIVFLPQTDKCMTEQ
**Q.** With B2 as the molecule, how does the “Effect on apoptosis (in words)” value ([1]; substance alone) read?
**A.** increased apoptosis

**Q.** And the “Increase of apoptosis above control” value ([1]; substance alone)?
**A.** about four times above control
